From PubChem BioAssay (NCI)
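These data come from cells grown in 96-well plates and exposed to compound for 48 hours at five concentrations. At the TGI there is no net growth.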

Each compound was assayed on HCT-116 colon (assay: NCI anticancer screen, dose series, 48 h).

SMILES	TGI
CN(C)c1ccc(C2SCC(=O)N2c2ccc(Oc3ccc(Cl)cc3)c(Cl)c2)cc1 (stereo not drawn)	32.7 µM
COc1ccc(/C=C2\N=C(SC)NC2=O)cc1	> 100 µM
Nc1ccc(C(=O)N2CCC[C@H]2CO)c(N)c1	> 100 µM
O=c1oc2ccc([N+](=O)[O-])cc2c(Nc2ccc3c(c2)Oc2ccccc2O3)c1[N+](=O)[O-]	> 100 µM
CC1=C(CO)C(=O)O[C@@H]([C@@H](CO)[C@H]2CCC3C4C[C@@H](O)[C@@]5(O)CC=CC(=O)[C@]5(C)C4CC[C@@]32C)C1 (stereo partly drawn)	> 100 µM
Cn1c2ccccc2c(=O)c2cccc(C(=O)NC(CCCN=C(N)N)C(=O)O)c21 (stereo not drawn)	> 100 µM
O=C(O)/C=c1/c2ccccc2n2nc3ccccc3c12	90.7 µM
O=C1c2ccccc2C2(c3ccc(Cl)cc3)N[C@H]3CCCC[C@@H]3N12 (stereo partly drawn)	> 100 µM

These compounds were tested on IGROV1 ovarian (assay: NCI anticancer screen, dose series, 48 h).

SMILES	TGI
C=C1C(=O)C=C[C@]2(C)CC[C@H]3C(=C)C(=O)O[C@@H]3[C@@H]12	4.28 µM
CC12CCC(O)CC1CCC1C2CCC2(C)C(C(=O)CC(O)C(F)(F)F)CCC12 (stereo not drawn)	> 100 µM
CC(C)(C)OC(=O)NCCCNC1(c2cc3ccccc3s2)CCCCC1	32.2 µM
CC(C)(C)C(=O)CC1=Nc2ccccc2SC1(O)CC(=O)C(C)(C)C (stereo not drawn)	61.2 µM
N#CC1=C(N)N(c2ccccc2)C(c2ccccc2)C1(C#N)C#N (stereo not drawn)	32 µM
C=CCOc1ccc(C2(O)c3ccccc3C3=NCCCN32)cc1 (stereo not drawn)	> 100 µM
O=C1/C(=C/c2ccc(Cl)cc2)CSc2ccccc21	66.4 µM
CCC/C(Cl)=N\OC(=O)Nc1ccc(OC(F)(F)F)cc1	22 µM
Cc1ccc(S(=O)(=O)NC(=O)N[C@@H](Cc2cnc[nH]2)C(=O)O)cc1	> 100 µM
CC(=O)OCC1OC(n2c3c(cc(C#N)c2=S)CCCCC3)C(OC(C)=O)C(OC(C)=O)C1OC(C)=O (stereo not drawn)	> 100 µM
CCN1CCC(O)(/C=C/c2ccc(C)cc2C)C(C(=O)/C=C/c2ccc(C)cc2C)C1 (stereo not drawn)	8.98 µM
S=C(Nc1ccc2c(c1)oc1ccccc12)c1cccnc1	> 100 µM
Cc1cc(S(=O)(=O)Nc2nc3cc(-c4ccc(Cl)cc4)sc3c(=O)n2N)c(S)cc1Cl	> 100 µM
[N-]=[N+]=NC1=C(c2ccccn2)C(=O)c2cccc3cccc1c23	> 100 µM
C=C([C@@]1(O)C[C@H]2[C@H](CCC2(OC)OC)[C@@H]2c3ccccc3O[C@@H]21)[Si](C)(C)C	> 100 µM
O=C(O)c1ccc(OCc2nc3cc(C(F)(F)F)ccc3nc2-c2ccccc2)cc1	> 100 µM
COc1ccc2c(c1)CCN1CCc3ccccc3CC21 (stereo not drawn)	> 100 µM
CN(C)c1ccc(C2SCC(=O)N2c2ccc(Oc3ccc(Cl)cc3)c(Cl)c2)cc1 (stereo not drawn)	92.5 µM
COc1ccc(/C=C2\N=C(SC)NC2=O)cc1	> 100 µM
Nc1ccc(C(=O)N2CCC[C@H]2CO)c(N)c1	> 100 µM
O=c1oc2ccc([N+](=O)[O-])cc2c(Nc2ccc3c(c2)Oc2ccccc2O3)c1[N+](=O)[O-]	> 100 µM
CC1=C(CO)C(=O)O[C@@H]([C@@H](CO)[C@H]2CCC3C4C[C@@H](O)[C@@]5(O)CC=CC(=O)[C@]5(C)C4CC[C@@]32C)C1 (stereo partly drawn)	> 100 µM
Cn1c2ccccc2c(=O)c2cccc(C(=O)NC(CCCN=C(N)N)C(=O)O)c21 (stereo not drawn)	> 100 µM
O=C(O)/C=c1/c2ccccc2n2nc3ccccc3c12	> 100 µM
O=C1c2ccccc2C2(c3ccc(Cl)cc3)N[C@H]3CCCC[C@@H]3N12 (stereo partly drawn)	> 100 µM

What follows are compounds tested on MALME-3M melanoma (assay: NCI anticancer screen, dose series, 48 h).

SMILES	TGI
C=C1C(=O)C=C[C@]2(C)CC[C@H]3C(=C)C(=O)O[C@@H]3[C@@H]12	5.18 µM
CC12CCC(O)CC1CCC1C2CCC2(C)C(C(=O)CC(O)C(F)(F)F)CCC12 (stereo not drawn)	> 100 µM
CC(C)(C)OC(=O)NCCCNC1(c2cc3ccccc3s2)CCCCC1	30.9 µM
CC(C)(C)C(=O)CC1=Nc2ccccc2SC1(O)CC(=O)C(C)(C)C (stereo not drawn)	> 100 µM
N#CC1=C(N)N(c2ccccc2)C(c2ccccc2)C1(C#N)C#N (stereo not drawn)	35.6 µM
C=CCOc1ccc(C2(O)c3ccccc3C3=NCCCN32)cc1 (stereo not drawn)	27.4 µM
O=C1/C(=C/c2ccc(Cl)cc2)CSc2ccccc21	74.4 µM
CCC/C(Cl)=N\OC(=O)Nc1ccc(OC(F)(F)F)cc1	4.22 µM
COc1cccc(/C=N/n2c(C)n[nH]c2=O)c1	> 100 µM
Cc1ccc(S(=O)(=O)NC(=O)N[C@@H](Cc2cnc[nH]2)C(=O)O)cc1	> 100 µM
CC(=O)OCC1OC(n2c3c(cc(C#N)c2=S)CCCCC3)C(OC(C)=O)C(OC(C)=O)C1OC(C)=O (stereo not drawn)	> 100 µM
CCN1CCC(O)(/C=C/c2ccc(C)cc2C)C(C(=O)/C=C/c2ccc(C)cc2C)C1 (stereo not drawn)	11.4 µM
S=C(Nc1ccc2c(c1)oc1ccccc12)c1cccnc1	> 100 µM
Cc1cc(S(=O)(=O)Nc2nc3cc(-c4ccc(Cl)cc4)sc3c(=O)n2N)c(S)cc1Cl	> 100 µM
[N-]=[N+]=NC1=C(c2ccccn2)C(=O)c2cccc3cccc1c23	> 100 µM
COc1ccc2c(c1)CCN1CCc3ccccc3CC21 (stereo not drawn)	> 100 µM
CN(C)c1ccc(C2SCC(=O)N2c2ccc(Oc3ccc(Cl)cc3)c(Cl)c2)cc1 (stereo not drawn)	38.4 µM
COc1ccc(/C=C2\N=C(SC)NC2=O)cc1	> 100 µM
O=c1oc2ccc([N+](=O)[O-])cc2c(Nc2ccc3c(c2)Oc2ccccc2O3)c1[N+](=O)[O-]	> 100 µM
CC1=C(CO)C(=O)O[C@@H]([C@@H](CO)[C@H]2CCC3C4C[C@@H](O)[C@@]5(O)CC=CC(=O)[C@]5(C)C4CC[C@@]32C)C1 (stereo partly drawn)	> 100 µM
Cn1c2ccccc2c(=O)c2cccc(C(=O)NC(CCCN=C(N)N)C(=O)O)c21 (stereo not drawn)	> 100 µM
O=C(O)/C=c1/c2ccccc2n2nc3ccccc3c12	96.2 µM

What follows are compounds tested on MDA-MB-231 breast (assay: NCI anticancer screen, dose series, 48 h).

SMILES	TGI
C=C1C(=O)C=C[C@]2(C)CC[C@H]3C(=C)C(=O)O[C@@H]3[C@@H]12	11.7 µM
CC12CCC(O)CC1CCC1C2CCC2(C)C(C(=O)CC(O)C(F)(F)F)CCC12 (stereo not drawn)	98.2 µM
CC(C)(C)OC(=O)NCCCNC1(c2cc3ccccc3s2)CCCCC1	40.1 µM
